Results reported in US9585823B2, “Personal care compositions comprising a multi-active system for down regulating cytokines irritation” (The Gillette Company, priority 2010, dated 2017).

Test system: hTERT keratinocytes
Type: cell-based
Description: To ensure proper levels of the biological active molecules for the in vitro study, dilution studies were conducted and ATP was analyzed for the highest non-cytotoxic concentration. Olivem 460 (lot LG0833 from B&T, Milan Italy) at a level of 0.000156% and SymRelief (from Symrise) at a level of 0.0625% were determined to be appropriate respective concentrations for this study. ATP analysis is described below.
ATP analysis was conducted using Cell Titer-Glo. The CellTiter-Glo Luminescent Cell Viability Assay was obtained from Promega Corporation (Madison, Wis.). This assay is a homogeneous method for determining the number of viable cells in culture based on quantitation of ATP present, signaling the presence of metabolically active cells. After the final treatment and supernatants collected, the CellTiter-Glo reagent was added. The reagent was then transferred to a BD Falcon (Franklin Lakes, N.J.) Microtest 96-well Assay Plate (black, flat bottom, reference 353945, lot 041151). Luminescence was read on a Perkin Elmer Fluorimeter (Wallac Envision 2101 Multilabel Reader). Relative luminescence units were plotted in percent control versus treatment concentration.

Substance	highest non-cytotoxic concentration (level determined appropriate for the study)
Bisabolol (and) Zingiber Officinale Root Extract [SymRelief]	0.0625%
Sodium PEG-7 Olive Oil Carboxylate [Olivem 460]	0.000156%
